IC50 data for 20 compounds are collected here from patent publication US9469642B2, “Purinone compounds as kinase inhibitors” (Pharmacyclics LLC, priority 2012, dated 2016).

Where a name gives a salt, the structure may show the parent alone.

What all share (assay type): biochemical
One test has as its target T1, BTK (Homo sapiens, UniProt Q06187).
T1 construct: purified from insect cells as a full-length construct containing a N-terminal 6×-His tag; His6 (N); host or cells: insect cells (baculovirus Sf21)
As to the kind of experiment: Btk in vitro inhibitory activity (kinase assay by one of Methods A, B or C). The protocol:
(§1) Btk kinase activity is determined using a time-resolved fluorescence resonance energy transfer (TR-FRET) methodology. Measurements are performed in a reaction volume of 50 μL using 96-well assay plates. Kinase enzyme, inhibitor, ATP (at the Km for the kinase), and 1 peptide substrate (Biotin-AVLESEEELYSSARQ-NH2) are incubated in a reaction buffer composed of 20 mM Tris, 50 mM NaCl, MgCl2 (5-25 mM depending on the kinase), MnCl2 (0-10 mM), 1 mM DTT, 0.1 mM EDTA, 0.01% bovine serum albumin, 0.005% Tween-20, and 10% DMSO at pH 7.4 for one hour. The reaction is quenched by the addition of 1.2 equivalents of EDTA (relative to divalent cation) in 25 μL of 1× Lance buffer (Perkin-Elmer). Streptavidin-APC (Perkin-Elmer) and Eu-labeled p-Tyr100 antibody (Perkin-Elmer) in 1× Lance buffer are added in a 25 μL volume to give final concentrations of 100 nM and 2.5 nM, respectively, and the mixture is allowed to incubate for one hour. The TR-FRET signal is measured on a multimode plate reader with an excitation wavelength (λEx) of 330 nm and detection wavelengths (λEm) of 615 and 665 nm. Activity is determined by the ratio of the fluorescence at 665 nm to that at 615 nm. For each compound, enzyme activity is measured at various concentrations of compound. Negative control reactions are performed in the absence of inhibitor in replicates of six, and two no-enzyme controls are used to determine baseline fluorescence levels. Inhibition constants, Ki(app), were obtained using the program BatchKi (Kuzmic et al. (2000), Anal. Biochem. 286:45-50). IC50s are obtained according to the equation: IC50=[…]+[E]total/2;
(§2) For all kinases, [ATP]=Km^ATP, [Btk]total=0.5 nM and [Lck]total=6 nM.
(§3) Kinase activity is measured in vitro using electrophoretic mobility shift assay. The kinase reactions are assembled in a total volume of 25 μL in 384 well plates. The reactions comprise: BTK enzyme (1 nM, N-terminal His6-tagged, recombinant, full-length, human BTK purified from baculovirus Sf21 insect cell system), inhibitor, ATP (16 μM, the apparent Km for the kinase), fluorescently labeled peptide substrate (1 μM, FAM-GEEPLYWSFPAKKK-NH2) in a reaction buffer composed of 100 mM HEPES, pH7.5, 5 mM MgCl2 1 mM DTT, 0.1% bovine serum albumin, 0.01% Triton X-100, and 1% DMSO. The reaction is incubated for one hour and is quenched by the addition of 45 μL of termination buffer (100 mM HEPES, pH7.5, 0.01% Triton X-100, 30 mM EDTA). The terminated reactions are analyzed using 12 channel LabChip® 3000 microfluidic detection instrument (Caliper Life Sciences). The enzymatic phosphorylation of the peptide results in a change in net charge, enabling electrophoretic separation of product from substrate peptide. As substrate and product peptides are separated, two peaks of fluorescence are observed. Change in the relative fluorescence intensity of the substrate and product peaks is the parameter measured, reflecting enzyme activity. In the presence of an inhibitor, the ratio between product and substrate is altered:the signal of the product decreases, while the signal of the substrate increases.
(§4) Activity in each sample is determined as the product to sum ratio (PSR):P/(S+P), where P is the peak height of the product peptide and S is the peak height of the substrate peptide. For each compound, enzyme activity is measured at various concentrations (12 concentrations of compound spaced by 3× dilution intervals). Negative control samples (0%-inhibition in the absence of inhibitor) and positive control samples (100%-inhibition, in the presence of 20 mM EDTA) are assembled in replicates of four and are used to calculate %-inhibition values for each inhibitor at each concentration. Percent inhibition (Pinh) is determined using following equation: […]

The target of another test is EGFR (Homo sapiens, UniProt P00533). As to the kind of experiment: Kinase panel inhibition, EGFR (one of the methods of Example 76a, 76b, 76c). On the procedure: as §1, §2, §3, §4
Chain of EGFR (P00533 25-1210, species assumed): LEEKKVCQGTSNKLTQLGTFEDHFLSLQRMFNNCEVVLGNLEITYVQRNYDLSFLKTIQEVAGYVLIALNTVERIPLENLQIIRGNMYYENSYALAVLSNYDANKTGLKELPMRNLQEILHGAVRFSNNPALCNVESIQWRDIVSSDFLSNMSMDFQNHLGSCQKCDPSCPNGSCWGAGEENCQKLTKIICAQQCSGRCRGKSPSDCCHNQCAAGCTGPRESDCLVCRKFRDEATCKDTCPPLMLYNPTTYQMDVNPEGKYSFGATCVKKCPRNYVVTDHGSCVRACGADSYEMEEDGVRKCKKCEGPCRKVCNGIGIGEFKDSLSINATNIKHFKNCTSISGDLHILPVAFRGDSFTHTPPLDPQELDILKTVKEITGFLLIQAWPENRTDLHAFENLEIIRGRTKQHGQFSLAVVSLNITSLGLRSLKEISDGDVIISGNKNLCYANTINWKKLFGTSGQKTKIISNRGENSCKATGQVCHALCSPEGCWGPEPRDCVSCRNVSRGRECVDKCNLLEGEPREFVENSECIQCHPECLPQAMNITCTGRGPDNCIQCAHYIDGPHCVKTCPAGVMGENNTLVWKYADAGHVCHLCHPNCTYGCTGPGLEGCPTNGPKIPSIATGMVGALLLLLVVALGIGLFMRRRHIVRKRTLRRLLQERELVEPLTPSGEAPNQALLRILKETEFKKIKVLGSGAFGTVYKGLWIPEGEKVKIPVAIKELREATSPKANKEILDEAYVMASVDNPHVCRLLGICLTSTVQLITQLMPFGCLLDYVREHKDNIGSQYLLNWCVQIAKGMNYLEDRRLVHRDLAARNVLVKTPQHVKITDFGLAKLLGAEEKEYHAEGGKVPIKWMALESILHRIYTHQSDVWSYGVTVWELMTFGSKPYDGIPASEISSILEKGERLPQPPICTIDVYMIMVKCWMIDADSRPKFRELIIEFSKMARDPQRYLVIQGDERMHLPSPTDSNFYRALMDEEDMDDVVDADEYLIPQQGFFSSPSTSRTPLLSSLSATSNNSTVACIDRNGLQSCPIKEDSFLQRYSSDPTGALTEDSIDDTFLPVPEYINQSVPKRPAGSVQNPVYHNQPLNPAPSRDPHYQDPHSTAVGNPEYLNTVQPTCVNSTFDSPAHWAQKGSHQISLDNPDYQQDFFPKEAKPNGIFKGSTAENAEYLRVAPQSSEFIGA
In a further test the target is LCK (Homo sapiens, UniProt P06239). As to the kind of experiment: Kinase panel inhibition, LCK (one of the methods of Example 76a, 76b, 76c). The protocol: as §1, §2, §3, §4
Chain of LCK (P06239 whole entry, species assumed): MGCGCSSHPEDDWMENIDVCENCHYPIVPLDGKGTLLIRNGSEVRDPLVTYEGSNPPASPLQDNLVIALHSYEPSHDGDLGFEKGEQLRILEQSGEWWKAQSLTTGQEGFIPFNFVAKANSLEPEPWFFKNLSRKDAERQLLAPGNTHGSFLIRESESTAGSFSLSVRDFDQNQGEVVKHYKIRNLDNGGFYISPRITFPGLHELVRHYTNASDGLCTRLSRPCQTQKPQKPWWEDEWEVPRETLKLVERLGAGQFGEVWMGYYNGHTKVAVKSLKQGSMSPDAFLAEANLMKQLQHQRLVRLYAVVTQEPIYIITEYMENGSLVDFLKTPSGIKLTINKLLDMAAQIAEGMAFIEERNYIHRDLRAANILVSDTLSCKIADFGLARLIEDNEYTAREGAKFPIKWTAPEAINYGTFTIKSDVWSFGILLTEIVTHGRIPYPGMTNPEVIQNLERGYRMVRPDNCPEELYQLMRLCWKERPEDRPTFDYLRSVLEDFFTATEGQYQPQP

T1 sequence (Q06187 whole entry): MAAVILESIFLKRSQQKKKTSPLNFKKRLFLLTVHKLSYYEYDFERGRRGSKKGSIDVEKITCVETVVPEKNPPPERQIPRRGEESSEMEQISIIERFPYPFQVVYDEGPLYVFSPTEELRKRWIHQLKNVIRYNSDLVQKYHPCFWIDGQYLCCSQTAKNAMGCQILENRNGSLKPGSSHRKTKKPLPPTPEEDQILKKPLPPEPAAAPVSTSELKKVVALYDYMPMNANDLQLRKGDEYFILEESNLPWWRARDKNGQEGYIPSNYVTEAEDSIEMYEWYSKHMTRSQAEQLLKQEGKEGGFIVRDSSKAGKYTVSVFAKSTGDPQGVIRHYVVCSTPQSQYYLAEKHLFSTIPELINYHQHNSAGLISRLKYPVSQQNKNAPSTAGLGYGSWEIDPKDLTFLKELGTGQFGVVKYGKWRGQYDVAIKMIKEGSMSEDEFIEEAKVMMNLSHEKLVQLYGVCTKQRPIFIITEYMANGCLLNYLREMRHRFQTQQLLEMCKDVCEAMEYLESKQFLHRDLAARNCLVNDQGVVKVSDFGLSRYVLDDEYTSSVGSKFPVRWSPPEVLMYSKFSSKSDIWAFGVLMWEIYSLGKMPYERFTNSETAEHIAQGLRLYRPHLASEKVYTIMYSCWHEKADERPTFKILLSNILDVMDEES

Broadly, the IC50 is the point on the concentration scale where inhibition reaches its midpoint. Read a high IC50 as a need for much substance. `COc1ccc(-n2c(=O)n(-c3ccc(Oc4ccccc4)cc3)c3c(N)ncnc32)cc1N(C)C(=O)/C=C/CN(C)[C@H]1CCOC1` [Compound 313, (S,E)-N-(5-(6-amino-8-oxo-7-(4-phenoxyphenyl)-7H-purin-9(8H)-yl)-2-methoxyphenyl)-N-methyl-4-(methyl(tetrahydrofuran-3-yl)amino)but-2-enamide]: the concentration for half-maximal inhibition (IC50) is under 100 nM against BTK, 1000 to 10000 nM against EGFR and 1000 to 10000 nM against LCK. For the compound `CNC/C=C/C(=O)N(C)c1cccc(-n2c(=O)n(-c3ccc(Oc4ccccc4)cc3)c3c(N)ncnc32)c1` [Compound 229, (E)-N-(3-(6-amino-8-oxo-7-(4-phenoxyphenyl)-7H-purin-9(8H)-yl)phenyl)-N-methyl-4-(methylamino)but-2-enamide hydrochloride], the IC50 at BTK is under 100 nM; against EGFR, under 100 nM; on LCK it was 1000 to 10000 nM. Regarding `CN(C/C=C/C(=O)N1CC[C@@H](n2c(=O)n(-c3ccc(Oc4ccccc4)cc3)c3c(N)ncnc32)C1)C1CC1` [Compound 63, (R,E)-6-amino-9-(1-(4-(cyclopropyl(methyl)amino)but-2-enoyl)pyrrolidin-3-yl)-7-(4-phenoxyphenyl)-7H-purin-8(9H)-one], the IC50 was under 100 nM against BTK, 1000 to 10000 nM at EGFR and 100 to 1000 nM at LCK. As for `Cc1cc(NC(=O)/C=C/CN(C)C2CC2)cc(-n2c(=O)n(-c3ccc(Oc4ccccc4)cc3C)c3c(N)ncnc32)c1` [Compound 298, (E)-N-(3-(6-amino-7-(2-methyl-4-phenoxyphenyl)-8-oxo-7H-purin-9(8H)-yl)-5-methylphenyl)-4-(cyclopropyl(methyl)amino)but-2-enamide], the IC50 at BTK is under 100 nM; on EGFR, 100 to 1000 nM; against LCK, 1000 to 10000 nM.

Consider `Cc1cc(NC(=O)/C=C/CN(C)C2CC2)cc(-n2c(=O)n(-c3ccc(Oc4ccccc4)cc3)c3c(N)ncnc32)c1` [Compound 255, (E)-N-(3-(6-amino-8-oxo-7-(4-phenoxyphenyl)-7H-purin-9(8H)-yl)-5-methylphenyl)-4-(cyclopropyl(methyl)amino)but-2-enamide], for which the IC50 at BTK is under 100 nM; on EGFR it was 100 to 1000 nM; on LCK, 100 to 1000 nM. At BTK, `C=CC(=O)N1CCC[C@@H](n2c(=O)n(-c3ccc(Cl)cc3)c3c(N)ncnc32)C1` [Compound 90, (R)-9-(1-acryloylpiperidin-3-yl)-6-amino-7-(4-chlorophenyl)-7H-purin-8(9H)-one] showed an IC50 of under 100 nM. `COCCN(C)C/C=C/C(=O)Nc1cccc(-n2c(=O)n(-c3ccc(Oc4ccccc4)cc3)c3c(N)ncnc32)c1` [Compound 318, (E)-N-(3-(6-amino-8-oxo-7-(4-phenoxyphenyl)-7H-purin-9(8H)-yl)phenyl)-4-((2-methoxyethyl)(methyl)amino)but-2-enamide]: the figures for the IC50 against BTK, against EGFR and on LCK were under 100 nM, under 100 nM and 100 to 1000 nM, respectively.

The compound `C=CC(=O)N1CC[C@@H](n2c(=O)n(-c3ccc(Cl)cc3)c3c(N)ncnc32)C1` [Compound 78, (R)-9-(1-acryloylpyrrolidin-3-yl)-6-amino-7-(4-chlorophenyl)-7H-purin-8(9H)-one] gave a concentration for half-maximal inhibition (IC50) against BTK of under 100 nM. Same read-out and setting: with `CN(C(=O)/C=C/CN(C)C1CC1)c1cccc(-n2c(=O)n(-c3ccc(NC(=O)c4ccccc4)cc3)c3c(N)ncnc32)c1` [Compound 274, (E)-N-(4-(6-amino-9-(3-(4-(cyclopropyl(methyl)amino)-N-methylbut-2-enamido)phenyl)-8-oxo-8,9-dihydro-7H-purin-7-yl)phenyl)benzamide] the figure was under 100 nM; with `CN(C(=O)/C=C/CN(C)C1CCC1)c1cccc(-n2c(=O)n(-c3ccc(Oc4ccccc4)cc3)c3c(N)ncnc32)c1` [Compound 35, (E)-N-(3-(6-amino-8-oxo-7-(4-phenoxyphenyl)-7H-purin-9(8H)-yl)phenyl)-4-(cyclobutyl(methyl)amino)-N-methylbut-2-enamide], under 100 nM. On BTK, `CN(C(=O)/C=C/CN(C)C1CC1)c1cccc(-n2c(=O)n(-c3ccc(C(=O)Nc4ccccc4)cc3)c3c(N)ncnc32)c1` [Compound 280, (E)-4-(6-amino-9-(3-(4-(cyclopropyl(methyl)amino)-N-methylbut-2-enamido)phenyl)-8-oxo-8,9-dihydro-7H-purin-7-yl)-N-phenylbenzamide] displayed a concentration for half-maximal inhibition (IC50) of 100 to 1000 nM.

Consider `C=CC(=O)N1CCC[C@@H](n2c(=O)n(-c3ccc(C)c(OC)c3)c3c(N)ncnc32)C1` [Compound 93, (R)-9-(1-acryloylpiperidin-3-yl)-6-amino-7-(3-methoxy-4-methylphenyl)-7H-purin-8(9H)-one], for which the IC50 at BTK is under 100 nM. Take `C=CC(=O)N(C)c1cccc(-n2c(=O)n(-c3ccc(C)c(OC)c3)c3c(N)ncnc32)c1` [Compound 76, N-(3-(6-amino-7-(3-methoxy-4-methylphenyl)-8-oxo-7H-purin-9(8H)-yl)phenyl)-N-methylacrylamide]: on BTK, the IC50 was under 100 nM. On the same count and under the same terms, the figure for `COc1cc(NC(=O)/C=C/CN(C)C2CC2)cc(-n2c(=O)n(-c3ccc(Oc4ccccc4)cc3)c3c(N)ncnc32)c1` [Compound 263, (E)-N-(3-(6-amino-8-oxo-7-(4-phenoxyphenyl)-7H-purin-9(8H)-yl)-5-methoxyphenyl)-4-(cyclopropyl(methyl)amino)but-2-enamide] is under 100 nM. Regarding `C=CC(=O)N1CC[C@@H](n2c(=O)n(-c3ccc(C)c(OC)c3)c3c(N)ncnc32)C1` [Compound 82, (R)-9-(1-acryloylpyrrolidin-3-yl)-6-amino-7-(3-methoxy-4-methylphenyl)-7H-purin-8(9H)-one], the IC50 on BTK is under 100 nM. Still for that read-out and setting: with `COc1ccc(N(C)C(=O)/C=C/CN(C)C2CC2)cc1-n1c(=O)n(-c2ccc(Oc3ccccc3)cc2)c2c(N)ncnc21` [Compound 181, (E)-N-(3-(6-amino-8-oxo-7-(4-phenoxyphenyl)-7H-purin-9(8H)-yl)-4-methoxyphenyl)-4-(cyclopropyl(methyl)amino)-N-methylbut-2-enamide] the figure was 100 to 1000 nM; with `CN(C(=O)/C=C/CN(C)C1CC1)c1cccc(-n2c(=O)n(-c3ccc(Oc4ccc(O)cc4)cc3)c3c(N)ncnc32)c1` [Compound 269, (E)-N-(3-(6-amino-7-(4-(4-hydroxyphenoxy)phenyl)-8-oxo-7H-purin-9(8H)-yl)phenyl)-4-(cyclopropyl(methyl)amino)-N-methylbut-2-enamide], under 100 nM; with `CN(C(=O)/C=C/CN)c1cccc(-n2c(=O)n(-c3ccc(Oc4ccccc4)cc3)c3c(N)ncnc32)c1` [Compound 326, (E)-4-amino-N-(3-(6-amino-8-oxo-7-(4-phenoxyphenyl)-7H-purin-9(8H)-yl)phenyl)-N-methylbut-2-enamide], 100 to 1000 nM.

Take `C=CC(=O)N(C)c1cccc(-n2c(=O)n(-c3ccc(Cl)cc3)c3c(N)ncnc32)c1` [Compound 77, N-(3-(6-amino-7-(4-chlorophenyl)-8-oxo-7H-purin-9(8H)-yl)phenyl)-N-methylacrylamide]: the IC50 on BTK is under 100 nM. Same read-out and setting: the figure for `Nc1ncnc2c1n(-c1ccc(Oc3ccccc3)cc1)c(=O)n2-c1cccc(NC(=O)/C=C/CNC2CC2)c1` [Compound 116, (E)-N-(3-(6-amino-8-oxo-7-(4-phenoxyphenyl)-7H-purin-9(8H)-yl)phenyl)-4-(cyclopropylamino)but-2-enamide] is under 100 nM.
